ChEMBL document CHEMBL3997839, “Novel conjugates of endoperoxide and 4-anilinoquinazoline as potential anticancer agents” (Bioorg Med Chem Lett, 2017)
The source made the active and inactive calls. The calls are words filed in the database; no cut-off is given here.

Legend:
[1] = tested on: A549; assay: Antiproliferative activity against human A549 cells harboring wild type EGFR after 48 hrs by MTT assay; type: functional, cell-based
[2] = tested on: A-431; assay: Antiproliferative activity against EGFR over-expressing human A431 cells after 48 hrs by MTT assay; type: functional, cell-based
[3] = tested on: NCI-H1975; assay: cells; type: functional, cell-based, Homo sapiens
[4] = tested on: HCC827; assay: Antiproliferative activity against human HCC827 cells harboring EGFR E746_A750 deletion mutant after 48 hrs by MTT assay; type: functional, cell-based
[5] = tested on: L02; assay: Antiproliferative activity against human HL7702 cells after 48 hrs by MTT assay; type: ADME, cell-based
[6] = target: Epidermal growth factor receptor (Homo sapiens, UniProt P00533)
Sequence of Epidermal growth factor receptor (Homo sapiens, UniProt P00533) (P00533 whole entry): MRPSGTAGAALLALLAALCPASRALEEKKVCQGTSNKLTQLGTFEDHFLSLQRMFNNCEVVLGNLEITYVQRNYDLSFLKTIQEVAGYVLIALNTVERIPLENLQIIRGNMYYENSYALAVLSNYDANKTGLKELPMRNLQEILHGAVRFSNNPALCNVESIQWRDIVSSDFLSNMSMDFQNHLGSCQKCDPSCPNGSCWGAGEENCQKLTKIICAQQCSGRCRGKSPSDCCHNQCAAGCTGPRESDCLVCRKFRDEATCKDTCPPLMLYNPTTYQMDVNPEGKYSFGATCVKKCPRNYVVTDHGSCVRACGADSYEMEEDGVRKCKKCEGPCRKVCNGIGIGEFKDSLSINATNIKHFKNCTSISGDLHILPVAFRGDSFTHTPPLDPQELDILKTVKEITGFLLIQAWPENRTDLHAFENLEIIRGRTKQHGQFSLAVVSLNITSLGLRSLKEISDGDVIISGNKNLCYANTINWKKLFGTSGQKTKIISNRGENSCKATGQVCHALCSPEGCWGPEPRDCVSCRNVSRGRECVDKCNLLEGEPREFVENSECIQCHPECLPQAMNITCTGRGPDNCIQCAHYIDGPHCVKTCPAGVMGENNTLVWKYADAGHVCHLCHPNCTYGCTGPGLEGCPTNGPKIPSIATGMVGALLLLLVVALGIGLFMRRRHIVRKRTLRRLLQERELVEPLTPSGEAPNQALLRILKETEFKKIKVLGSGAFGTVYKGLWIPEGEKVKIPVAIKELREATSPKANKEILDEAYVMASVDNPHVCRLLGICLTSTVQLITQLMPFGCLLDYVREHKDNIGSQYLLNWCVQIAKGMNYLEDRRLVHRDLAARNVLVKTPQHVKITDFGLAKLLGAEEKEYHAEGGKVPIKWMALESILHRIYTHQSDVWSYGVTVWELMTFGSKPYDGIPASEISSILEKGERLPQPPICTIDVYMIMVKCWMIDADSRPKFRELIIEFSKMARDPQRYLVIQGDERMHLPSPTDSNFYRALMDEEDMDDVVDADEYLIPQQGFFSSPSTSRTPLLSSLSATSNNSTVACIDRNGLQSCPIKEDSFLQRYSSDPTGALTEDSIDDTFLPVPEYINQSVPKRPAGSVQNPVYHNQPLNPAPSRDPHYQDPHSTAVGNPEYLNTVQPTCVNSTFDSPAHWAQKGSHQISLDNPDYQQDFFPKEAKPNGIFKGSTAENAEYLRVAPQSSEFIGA
Description: Inhibition of recombinant human GST-tagged EGFR cytoplasmic domain (668 to 1210 residues) expressed in baculovirus expression system by Z'-Lyte assay

[7] = target: Epidermal growth factor receptor (Homo sapiens, UniProt P00533, L858R); type: cell-based
Sequence of Epidermal growth factor receptor (Homo sapiens, UniProt P00533, L858R) (P00533 25-1210 L858R limits assumed): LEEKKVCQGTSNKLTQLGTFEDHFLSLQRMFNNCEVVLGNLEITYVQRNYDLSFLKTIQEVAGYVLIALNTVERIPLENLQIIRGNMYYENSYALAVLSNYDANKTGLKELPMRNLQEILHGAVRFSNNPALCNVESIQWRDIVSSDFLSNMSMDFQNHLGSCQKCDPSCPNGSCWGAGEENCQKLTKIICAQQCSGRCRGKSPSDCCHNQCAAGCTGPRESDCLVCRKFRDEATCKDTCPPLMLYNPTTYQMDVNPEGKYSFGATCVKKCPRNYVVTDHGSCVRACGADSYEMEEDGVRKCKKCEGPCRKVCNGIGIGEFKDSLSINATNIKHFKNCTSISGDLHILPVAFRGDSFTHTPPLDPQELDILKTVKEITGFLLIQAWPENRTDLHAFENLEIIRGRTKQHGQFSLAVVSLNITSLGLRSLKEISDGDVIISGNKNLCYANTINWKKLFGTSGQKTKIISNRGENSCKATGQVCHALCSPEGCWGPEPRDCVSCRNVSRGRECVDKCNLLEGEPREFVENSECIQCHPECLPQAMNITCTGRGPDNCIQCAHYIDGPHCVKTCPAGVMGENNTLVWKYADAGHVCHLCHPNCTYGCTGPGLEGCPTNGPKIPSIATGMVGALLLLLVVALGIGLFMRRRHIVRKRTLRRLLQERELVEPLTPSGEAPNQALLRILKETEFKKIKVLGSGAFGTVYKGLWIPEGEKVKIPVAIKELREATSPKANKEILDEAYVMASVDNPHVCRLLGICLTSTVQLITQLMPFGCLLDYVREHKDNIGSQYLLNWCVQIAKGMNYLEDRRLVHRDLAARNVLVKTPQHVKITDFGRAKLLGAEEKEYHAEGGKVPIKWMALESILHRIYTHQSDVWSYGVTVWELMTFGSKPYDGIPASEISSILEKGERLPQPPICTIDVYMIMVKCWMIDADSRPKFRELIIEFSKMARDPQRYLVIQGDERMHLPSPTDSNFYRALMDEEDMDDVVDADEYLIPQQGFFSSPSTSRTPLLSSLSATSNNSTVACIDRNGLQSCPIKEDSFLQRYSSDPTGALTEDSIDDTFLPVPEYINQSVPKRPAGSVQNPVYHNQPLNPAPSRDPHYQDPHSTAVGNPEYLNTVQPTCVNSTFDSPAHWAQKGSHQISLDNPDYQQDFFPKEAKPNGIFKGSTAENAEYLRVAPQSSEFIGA

[8] = target: Epidermal growth factor receptor (Homo sapiens, UniProt P00533, L858R/T790M); assay: Inhibition of recombinant human GST-tagged EGFR L858R/T790M double mutant cytoplasmic domain (668 to 1210 residues) expressed in baculovirus expression system by Z'-Lyte assay
[9] = tested on: NCI-H1975; assay: Induction of ROS generation in human NCI-H1975 cells harboring EGFR L858R/T790M double mutant at 15 to 60 uM after 4 hrs by DCFH-DA staining based flow cytometry; type: functional, cell-based
[10] = tested on: NCI-H1975; assay: Induction of ROS generation in human NCI-H1975 cells harboring EGFR L858R/T790M double mutant at 100 uM after 4 hrs by DCFH-DA staining based flow cytometry; type: functional, cell-based
[11] = tested on: NCI-H1975; assay: Induction of ROS generation in human NCI-H1975 cells harboring EGFR L858R/T790M double mutant assessed as fluorescence level at 3 uM after 4 hrs by DCFH-DA staining based flow cytometry; type: functional
[12] = tested on: NCI-H1975; assay: Induction of ROS generation in human NCI-H1975 cells harboring EGFR L858R/T790M double mutant assessed as fluorescence level at 6 uM after 4 hrs by DCFH-DA staining based flow cytometry; type: functional
[13] = tested on: NCI-H1975; assay: Induction of ROS generation in human NCI-H1975 cells harboring EGFR L858R/T790M double mutant assessed as fluorescence level at 12 uM after 4 hrs by DCFH-DA staining based flow cytometry; type: functional
[14] = tested on: NCI-H1975; assay: Induction of ROS generation in human NCI-H1975 cells harboring EGFR L858R/T790M double mutant after 4 hrs by DCFH-DA staining based flow cytometry; type: functional, cell-based
[15] = tested on: NCI-H1975; assay: Induction of apoptosis in human NCI-H1975 cells harboring EGFR L858R/T790M double mutant after 48 hrs by Annexin V/propidium iodide staining based flow cytometry; type: functional, cell-based
[16] = tested on: NCI-H1975; assay: Induction of apoptosis in human NCI-H1975 cells harboring EGFR L858R/T790M double mutant assessed as live cells at 3 uM after 48 hrs by Annexin V/propidium iodide staining based flow cytometry (reference value: 83.5%); type: functional
[17] = tested on: NCI-H1975; assay: Induction of apoptosis in human NCI-H1975 cells harboring EGFR L858R/T790M double mutant assessed as early apoptotic cells at 3 uM after 48 hrs by Annexin V/propidium iodide staining based flow cytometry (reference value: 4.1%); type: functional
[18] = tested on: NCI-H1975; assay: Induction of apoptosis in human NCI-H1975 cells harboring EGFR L858R/T790M double mutant assessed as late apoptotic cells at 3 uM after 48 hrs by Annexin V/propidium iodide staining based flow cytometry (reference value: 7.2%); type: functional
[19] = tested on: NCI-H1975; assay: Induction of apoptosis in human NCI-H1975 cells harboring EGFR L858R/T790M double mutant assessed as necrotic cells at 3 uM after 48 hrs by Annexin V/propidium iodide staining based flow cytometry (reference value: 4.13%); type: functional
[20] = tested on: NCI-H1975; assay: Induction of apoptosis in human NCI-H1975 cells harboring EGFR L858R/T790M double mutant assessed as live cells at 6 uM after 48 hrs by Annexin V/propidium iodide staining based flow cytometry (reference value: 83.5%); type: functional
[21] = tested on: NCI-H1975; assay: Induction of apoptosis in human NCI-H1975 cells harboring EGFR L858R/T790M double mutant assessed as early apoptotic cells at 6 uM after 48 hrs by Annexin V/propidium iodide staining based flow cytometry (reference value: 4.1%); type: functional
[22] = tested on: NCI-H1975; assay: Induction of apoptosis in human NCI-H1975 cells harboring EGFR L858R/T790M double mutant assessed as late apoptotic cells at 6 uM after 48 hrs by Annexin V/propidium iodide staining based flow cytometry (reference value: 7.2%); type: functional
[23] = tested on: NCI-H1975; assay: Induction of apoptosis in human NCI-H1975 cells harboring EGFR L858R/T790M double mutant assessed as necrotic cells at 6 uM after 48 hrs by Annexin V/propidium iodide staining based flow cytometry (reference value: 4.13%); type: functional
[24] = tested on: NCI-H1975; assay: Induction of apoptosis in human NCI-H1975 cells harboring EGFR L858R/T790M double mutant assessed as live cells at 9 uM after 48 hrs by Annexin V/propidium iodide staining based flow cytometry (reference value: 83.5%); type: functional
[25] = tested on: NCI-H1975; assay: Induction of apoptosis in human NCI-H1975 cells harboring EGFR L858R/T790M double mutant assessed as early apoptotic cells at 9 uM after 48 hrs by Annexin V/propidium iodide staining based flow cytometry (reference value: 4.1%); type: functional
[26] = tested on: NCI-H1975; assay: Induction of apoptosis in human NCI-H1975 cells harboring EGFR L858R/T790M double mutant assessed as late apoptotic cells at 9 uM after 48 hrs by Annexin V/propidium iodide staining based flow cytometry (reference value: 7.2%); type: functional
[27] = tested on: NCI-H1975; assay: Induction of apoptosis in human NCI-H1975 cells harboring EGFR L858R/T790M double mutant assessed as necrotic cells at 9 uM after 48 hrs by Annexin V/propidium iodide staining based flow cytometry (reference value: 4.13%); type: functional
[28] = tested on: NCI-H1975; assay: Induction of apoptosis in human NCI-H1975 cells harboring EGFR L858R/T790M double mutant assessed as increase in cleaved PARP expression at 2.5 to 10 uM after 24 hrs by Western blot method; type: functional, cell-based

SMILES | IC50 ([1]; Homo sapiens, A549, 48 h) [µM] | IC50 ([2]; Homo sapiens, A-431, 48 h) [µM] | IC50 ([3]; nci-h1975) [µM] | IC50 ([4]; hcc827) [µM] | IC50 ([5]; Homo sapiens, L02, 48 h) [µM] | IC50 [6] [µM] | IC50 [7] [µM] | IC50 [8] [µM] | IC50 ([3]; Homo sapiens, NCI-H1975, 48 h) [µM] | IC50 ([4]; Homo sapiens, HCC827, 48 h) [µM] | IC50 ([2]; a-431) [µM] | also measured
O=C(Nc1ccc2ncnc(Nc3cccc(Cl)c3)c2c1)C1CCC2(CC1)OCC1(OO2)C2CC3CC(C2)CC1C3 (stereo in doubt; 7) | 18 | 22 | 21.3 | 5.09 | > 100 | 0.0947 | 0.112 | > 10 |  |  |  | 
O=C(O)C1CCC2(CC1)OOC1(OO2)C2CC3CC(C2)CC1C3 (stereo not given) | > 100 | > 100 |  |  | > 100 | > 10 | > 10 | > 10 | > 50 | > 50 |  | 
O=C(Nc1ccc2nccc(Nc3cccc(Cl)c3)c2c1)C1CCC2(CC1)OOC1(O2)C2CC3CC(C2)CC1C3 (stereo in doubt; 14) |  |  | 22.3 | 17 |  | 0.128 | 0.146 |  |  |  | 13.6 | IC50 ([1]; a549): 18.3 µM; IC50 ([5]; l02): > 50 µM
COc1cc2ncnc(Nc3ccc(F)c(Cl)c3)c2cc1OCCCN1CCOCC1 |  |  |  |  |  |  |  |  |  |  |  | Activity [9]: inactive
O=C(Nc1ccc2ncnc(Nc3cccc(Cl)c3)c2c1)C1CCC2(CC1)OCC1(OO2)C2CC3CC(C2)CC1C3 (stereo in doubt; 8) |  |  | 48.5 | 10.7 |  | 0.117 | 0.175 |  |  |  | 23.1 | IC50 ([1]; a549): 24.7 µM
O=C(Nc1ccc2nccc(Nc3cccc(Cl)c3)c2c1)C1CCC2(CC1)OCC1(OO2)C2CC3CC(C2)CC1C3 (stereo not given) | 26.1 | > 50 |  |  | > 100 | 0.169 | 0.132 | > 10 | > 50 | 31.6 |  | Activity [10]: inactive
O=C(Nc1ccc2nccc(Nc3cccc(Cl)c3)c2c1)C1CCC2(CC1)OOC1(O2)C2CC3CC(C2)CC1C3 (stereo in doubt; 13) | 25.3 |  |  |  | 25.5 | 0.178 | 0.236 | > 10 | 33.4 | 12 | > 50 | 
O=C(Nc1ccc2ncnc(Nc3cccc(Cl)c3)c2c1)C1CCC2(CC1)OOC1(OO2)C2CC3CC(C2)CC1C3 (stereo not given) | 0.92 | 8.06 |  |  | 5.7 | 0.38 | 0.374 | > 10 | 3.06 | 0.31 |  | Flu intensity [11]: 2.59; Flu intensity [12]: 3.53; Flu intensity [13]: 6.42; Activity [14]: Dose-dependent effect; Activity [15]: Dose-dependent effect; Activity [16]: 83.5%; Activity [17]: 7.54%; Activity [18]: 7.47%; Activity [19]: 4.57%; Activity [20]: 74.2%; Activity [21]: 12.7%; Activity [22]: 8.12%; Activity [23]: 4.26%; Activity [24]: 52.2%; Activity [25]: 7.56%; Activity [26]: 19.8%; Activity [27]: 9.31%; Activity [28]: Active
O=C(Nc1ccc2ncnc(Nc3cccc(Cl)c3)c2c1)C1CCCCC1 | 6.36 | > 50 |  |  | > 50 | 0.00613 | 0.00696 | > 10 | 41.8 | 2.55 |  | 
O=C(Nc1ccc2ncnc(Nc3cccc(Cl)c3)c2c1)C1CCC2(CC1)OOC1(O2)C2CC3CC(C2)CC1C3 (stereo not given) | 8.45 | 31.5 |  |  | 18.2 | 0.0324 | 0.0489 | > 10 | 13 | 2.29 |  | 
Nc1ccc2ncnc(Nc3cccc(Cl)c3)c2c1 |  |  | > 50 | 0.1 |  |  |  |  |  |  | > 50 | IC50 ([1]; a549): > 100 µM; IC50 ([5]; l02): > 100 µM
O=C(Nc1ccc2ncnc(Nc3cccc(Cl)c3)c2c1)C1CCC2(CC1)OOC1(CCCCC1)OO2 | 0.87 | 3.99 |  |  | 1.43 | 0.0838 | 0.112 | > 10 | 0.89 | 0.05 |  | 
CC1(C)OOC2(CCC(C(=O)Nc3ccc4ncnc(Nc5cccc(Cl)c5)c4c3)CC2)OO1 | 3.62 | 19.6 |  |  | 25.8 | 0.0114 | 0.0171 | > 10 | 1.77 | 0.26 |  | 
